# Reference: patent US9469631B2 (Boehringer Ingelheim International GmbH, priority 2012, dated 2016)
# pEC50: −log10 of the molar value.
# Biological target: human GPR119 (Homo sapiens (Human), UniProt Q8TDV5)
# Assay: AlphaScreen cAMP assay in MIN6 cells stably transfected with human GPR119
# Type: cell-based
# Conditions: Min-6/hGPR119 cells, 45 min incubation at room temperature
# Procedure, shortened: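 MIN6 cells stably expressing human GPR119 were seeded at 10000 cells/well for 24 h. Compounds were then applied in pH 7.4 buffer with 0.5 mM IBMX, 0.1% BSA and 1% DMSO for 45 min at about 20 °C. Intracellular cAMP was measured by AlphaScreen.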
# human GPR119, sequence (Q8TDV5 whole entry): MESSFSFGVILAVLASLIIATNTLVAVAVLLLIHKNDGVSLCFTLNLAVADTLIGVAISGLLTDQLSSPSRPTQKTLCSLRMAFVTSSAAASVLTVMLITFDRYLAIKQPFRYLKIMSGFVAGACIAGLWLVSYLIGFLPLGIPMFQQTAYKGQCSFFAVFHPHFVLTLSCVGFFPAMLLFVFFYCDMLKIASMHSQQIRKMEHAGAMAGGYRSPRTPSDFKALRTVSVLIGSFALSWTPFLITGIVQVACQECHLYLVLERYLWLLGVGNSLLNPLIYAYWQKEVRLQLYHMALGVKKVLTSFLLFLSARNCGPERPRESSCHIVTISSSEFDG
row,Structure (SMILES),pEC50
1,"CC1(OC(=O)N2CCC(N(C(=O)c3ccc(-c4ccncc4C#N)cc3)C3CC3)CC2)CC1 [Example 32, 4-{[4-(3-Cyano-pyridin-4-yl)-benzoyl]-cyclopropyl-amino}-piperidine-1-carboxylic acid 1-methyl-cyclopropyl ester]",7.72
2,"CC(C)(C)OC(=O)N1CCC(N(C(=O)c2ccc(-c3ccc(C#N)cc3)cc2)C2CC2)CC1 [Example 54, 4-[(4′-Cyano-biphenyl-4-carbonyl)-cyclopropyl-amino]-piperidine-1-carboxylic acid tert-butyl ester]",7.08
3,"CC(C)(C)OC(=O)N1CCC(N(C(=O)c2ccc(-c3ccno3)cc2)C2CC2)CC1 [Example 57, 4-[Cyclopropyl-(4-isoxazol-5-yl-benzoyl)-amino]-piperidine-1-carboxylic acid tert-butyl ester]",7.00
4,"CC(C)(C)OC(=O)N1CCC(N(C(=O)c2ccc(-n3cccn3)cc2)C2CC2)CC1 [Example 71, 4-[Cyclopropyl-(4-pyrazol-1-yl-benzoyl)-amino]-piperidine-1-carboxylic acid tert-butyl ester]",6.20
5,"CC(C)(C)OC(=O)N1CCC(N(C(=O)c2ccc(-c3nnco3)cc2)C2CC2)CC1 [Example 62, 4-[Cyclopropyl-(4-[1,3,4]oxadiazol-2-yl-benzoyl)-amino]-piperidine-1-carboxylic acid tert-butyl ester]",6.19
6,"CC1(OC(=O)N2CCC(N(C(=O)c3ccc(-c4ccc(S(C)(=O)=O)cn4)cc3)C3CC3)CC2)CC1 [Example 19, 4-{Cyclopropyl-[4-(5-methanesulfonyl-pyridin-2-yl)-benzoyl]-amino}-piperidine-1-carboxylic acid 1-methyl-cyclopropyl ester]",5.75
7,"CCOC(=O)c1cnn(-c2ccc(C(=O)N(C3CC3)C3CCN(C(=O)OC(C)(C)C)CC3)cc2)c1C [Example 78, 4-{Cyclopropyl-[4-(4-ethoxycarbonyl-5-methyl-pyrazol-1-yl)-benzoyl]-amino}-piperidine-1-carboxylic acid tert-butyl ester]",7.12
8,"CC(C)(C)OC(=O)N1CCC(N(C(=O)c2ccc(-c3ccncc3C#N)c(F)c2)C2CC2)CC1 [Example 34, 4-{[4-(3-Cyano-pyridin-4-yl)-3-fluoro-benzoyl]-cyclopropyl-amino}-piperidine-1-carboxylic acid tert-butyl ester]",7.68
9,"C=C(C)OC(=O)N1CCC(N(C(=O)c2ccc(-c3cnco3)cc2)C2CC2)CC1 [Example 3, 4-[Cyclopropyl-(4-oxazol-5-yl-benzoyl)-amino]-piperidine-1-carboxylic acid isopropenyl ester]",6.91
10,"CC(C)(C)OC(=O)N1CCC(N(C(=O)c2ccc(-c3nccs3)cc2)C2CC2)CC1 [Example 59, 4-[Cyclopropyl-(4-thiazol-2-yl-benzoyl)-amino]-piperidine-1-carboxylic acid tert-butyl ester]",6.48
11,"CC(C)(C)OC(=O)N1CCC(N(C(=O)c2ccc(-n3cnnn3)cc2)C2CC2)CC1 [Example 22, 4-[Cyclopropyl-(4-tetrazol-1-yl-benzoyl)-amino]-piperidine-1-carboxylic acid tert-butyl ester]",6.86
12,"CC(C)(C)OC(=O)N1CCC(N(C(=O)c2c(F)cc(-c3cnco3)cc2F)C2CC2)CC1 [Example 36, 4-[Cyclopropyl-(2,6-difluoro-4-oxazol-5-yl-benzoyl)-amino]-piperidine-1-carboxylic acid tert-butyl ester]",6.66
13,Cn1cc(-c2ccc(C(=O)N(C3CC3)C3CCN(C(=O)OC(C)(C)C)CC3)cc2)cn1 [Example 13],6.37
14,"CC(C)(C)OC(=O)N1CCC(N(C(=O)c2ccc(-c3ccco3)cc2)C2CC2)CC1 [Example 65, 4-[Cyclopropyl-(4-furan-2-yl-benzoyl)-amino]-piperidine-1-carboxylic acid tert-butyl ester]",6.18
15,"CC(C)(C)OC(=O)N1CCC(N(C(=O)c2ccc(-c3ccncc3)cc2)C2CC2)CC1 [Example 70, 4-[Cyclopropyl-(4-pyridin-4-yl-benzoyl)-amino]-piperidine-1-carboxylic acid tert-butyl ester]",7.39
16,"C[C@H]1CN(C(=O)OC(C)(C)C)CC[C@H]1N(C(=O)c1ccc(-c2cnco2)cc1)C1CC1 (single isomer, unassigned) [Example 47]",6.07

# Now from value to molecule:
row,pEC50,Structure (SMILES)
1,6.54,"Cc1c(-c2ccccc2)ncn1-c1ccc(C(=O)N(C2CC2)C2CCN(C(=O)OC(C)(C)C)CC2)cc1 [Example 83, 4-{Cyclopropyl-[4-(5-methyl-4-phenyl-imidazol-1-yl)-benzoyl]-amino}-piperidine-1-carboxylic acid tert-butyl ester]"
2,8.00,"CC(C)(OC(=O)N1CCC(N(C(=O)c2ccc(-c3cnco3)cc2)C2CC2)CC1)C(F)(F)F [Example 130, 4-[Cyclopropyl-(4-oxazol-5-yl-benzoyl)-amino]-piperidine-1-carboxylic acid 2,2,2-trifluoro-1,1-dimethyl-ethyl ester]"
3,7.21,"CC(C)OC(=O)N1CCC(N(C(=O)c2ccc(-c3cnco3)cc2)C2CC2)CC1 [Example 118, 4-[Cyclopropyl-(4-oxazol-5-yl-benzoyl)-amino]-piperidine-1-carboxylic acid isopropyl ester]"
4,6.90,"CC(C)(C)OC(=O)N1CCC(N(C(=O)c2ccc(-c3ccc(N4CCOCC4)cc3)cc2)C2CC2)CC1 [Example 101, 4-[Cyclopropyl-(4′-morpholin-4-yl-biphenyl-4-carbonyl)-amino]-piperidine-1-carboxylic acid tert-butyl ester]"
5,7.36,"CC(C)(C)OC(=O)N1CCC(N(C(=O)c2ccc(-c3ccc(S(C)(=O)=O)cc3F)cc2)C2CC2)CC1 [Example 110, 4-[Cyclopropyl-(2′-fluoro-4′-methanesulfonyl-biphenyl-4-carbonyl)-amino]-piperidine-1-carboxylic acid tert-butyl ester]"
6,7.02,"Cc1nc(-c2ccccc2)cn1-c1ccc(C(=O)N(C2CC2)C2CCN(C(=O)OC(C)(C)C)CC2)cc1 [Example 84, 4-{Cyclopropyl-[4-(2-methyl-4-phenyl-imidazol-1-yl)-benzoyl]-amino}-piperidine-1-carboxylic acid tert-butyl ester]"
7,5.76,"CN(C)Cc1ccc(-c2ccc(C(=O)N(C3CC3)C3CCN(C(=O)OC(C)(C)C)CC3)cc2)cc1 [Example 112, 4-[Cyclopropyl-(4′-dimethylaminomethyl-biphenyl-4-carbonyl)-amino]-piperidine-1-carboxylic acid tert-butyl ester]"
8,7.41,"CC(C)(C)OC(=O)N1CCC(N(C(=O)c2ccc(-c3ccc(C(N)=O)cc3)cc2)C2CC2)CC1 [Example 102, 4-[(4′-Carbamoyl-biphenyl-4-carbonyl)-cyclopropyl-amino]-piperidine-1-carboxylic acid tert-butyl ester]"
9,5.99,"CCOC(=O)c1c(C)nn(-c2ccc(C(=O)N(C3CC3)C3CCN(C(=O)OC(C)(C)C)CC3)cc2)c1C [Example 79, 4-{Cyclopropyl-[4-(4-ethoxycarbonyl-3,5-dimethyl-pyrazol-1-yl)-benzoyl]-amino}-piperidine-1-carboxylic acid tert-butyl ester]"
10,6.95,"CNS(=O)(=O)c1ccc(-c2ccc(C(=O)N(C3CC3)C3CCN(C(=O)OC(C)(C)C)CC3)cc2)cc1 [Example 111, 4-[Cyclopropyl-(4′-methylsulfamoyl-biphenyl-4-carbonyl)-amino]-piperidine-1-carboxylic acid tert-butyl ester]"
11,7.26,"COc1ncc(-c2ccc(C(=O)N(C3CC3)C3CCN(C(=O)OC(C)(C)C)CC3)cc2)cn1 [Example 99, 4-{Cyclopropyl-[4-(2-methoxy-pyrimidin-5-yl)-benzoyl]-amino}-piperidine-1-carboxylic acid tert-butyl ester]"
12,6.46,"CC(C)(C)OC(=O)N1CCC(N(C(=O)c2ccc(-c3ccsc3)cc2)C2CC2)CC1 [Example 80, 4-[Cyclopropyl-(4-thiophen-3-yl-benzoyl)-amino]-piperidine-1-carboxylic acid tert-butyl ester]"

# Biological target: mutant form of the human GPR119 receptor (Homo sapiens (Human), UniProt Q8TDV5, S329A/T327A)
# Sequence (Q8TDV5 other isoform, or with tags, fused parts or gaps T327A/S329A): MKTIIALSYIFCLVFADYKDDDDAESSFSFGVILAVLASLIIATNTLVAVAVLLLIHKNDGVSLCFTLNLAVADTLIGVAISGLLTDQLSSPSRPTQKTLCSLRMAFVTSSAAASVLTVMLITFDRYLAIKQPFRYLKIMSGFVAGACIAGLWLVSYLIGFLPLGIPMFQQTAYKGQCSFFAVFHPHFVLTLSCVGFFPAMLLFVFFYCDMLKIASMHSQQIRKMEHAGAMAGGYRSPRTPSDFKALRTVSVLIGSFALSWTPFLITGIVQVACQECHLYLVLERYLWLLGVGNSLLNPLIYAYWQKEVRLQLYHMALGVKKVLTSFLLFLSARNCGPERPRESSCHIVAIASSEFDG
# Assay: LANCE cAMP-384 assay in HEK293 cells stably expressing a mutant form of human GPR119
# Type: cell-based
# Conditions: 20 min at 37° C.
row,Structure (SMILES),pEC50
1,"CC(C)OC(=O)N1CC[C@H](N(C(=O)c2ccc(-n3cncn3)c(F)c2)C2CC2)[C@H](F)C1 (single isomer, unassigned) [Example 48]",7.38
2,"CC(C)OC(=O)N1CCC(N(C(=O)c2ccc(-n3cncn3)c(F)c2)C2CC2)CC1 [Example 49, 4-[Cyclopropyl-(3-fluoro-4-[1,2,4]triazol-1-yl-benzoyl)-amino]-piperidine-1-carboxylic acid isopropyl ester]",6.47
3,"CC(C)OC(=O)N1CC[C@@H](N(C(=O)c2ccc(-n3cncn3)c(F)c2)C2CC2)[C@@H](F)C1 (single isomer, unassigned) [Example 50]",5.99
4,"Cc1nccn1-c1ccc(C(=O)N(C2CC2)C2CCN(C(=O)OC(C)C)CC2)cc1 [Example 51, 4-{Cyclopropyl-[4-(2-methyl-imidazol-1-yl)-benzoyl]-amino}-piperidine-1-carboxylic acid isopropyl ester]",5.80
